Experiments:
[1] = molecular target: T1, M.TaqI-V21G (Thermus aquaticus, UniProt P14385, V21G); experiment: DNA protection assay with M.TaqI variant V21G on phage lambda DNA; type: biochemical; conditions: 1 μg phage lambda DNA, cofactor 300 μM, 60° C. for 4 h, then R.TaqI
T1 construct: made in house
Source text: Transfer kinetics of the activated ethyl (—CH2CH3), propyl (—CH2CH2CH3), prop-2-enyl (—CH2CH═CH2), prop-2-ynyl (—CH2C≡CH), but-2-ynyl (—CH2C≡CCH3), pent-2-ynyl (—CH2C≡CCH2CH3) and benzyl group (—CH2C6H5) from cofactors 3-9 by the DNA adenine-N6 methyltransferase M.TaqI and its variant V21 G, the DNA cytosine-C5 methyltransferase M.HhaI and its variant Q82A, the DNA cytosine-N4 methyltransferase M.BcnIB and the DNA cytosine-C5 methyltransferase M.SssI variant Q142A to phage lambda DNA (48502 base pairs) were investigated using a DNA protection assay. This assay makes use of the fact that DNA methyltransferase-catalyzed modifications of nucleobases within the recognition sequences of restriction endonucleases can protect the DNA against fragmentation by these enzymes. […] Unmodified DNA containing 5′-TCGA-3′ recognition sequences is readily fragmentated by R.TaqI. After DNA modification by M.TaqI in the presence of a cofactor with an activated group Z—R modified 5′-TCGA^Z—R-3′ sequences are formed and, as a result, R.TaqI is unable to fragment the modified DNA. Occurrence of fragmentation is then analyzed by agarose gel electrophoresis.
By varying the amounts of DNA methyltransferase, this assay is used to investigate the enzymatic activities of the different DNA methyltransferases with cofactors 3-9 and compare them to the enzymatic activities with the natural cofactor 1. The minimal amount of DNA methyltransferase needed to fully protect 1 μg of phage lambda DNA against restriction endonuclease fragmentation under the given experimental conditions is defined as one enzyme unit (u).
Afterwards a solution (30 μL) containing R.TaqI restriction endonuclease (40 u, MBI Fermentas), bovine serum albumin (0.166 mg/mL) and buffer (16.6 mM Tris hydrochloride, 166 mM sodium chloride, 8.3 mM magnesium chloride, pH 8.0) was added to each dilution and incubation at 60-65° C. was continued for 15 min. Loading buffer (10 μL, 0.25% bromphenol blue, 30% glycerol) was added to each sample, and aliquots (12 μL) were analyzed for the degree of protection by agarose gel (1%) electrophoresis. Parallel control experiments were performed with phage lambda DNA in the absence of M.TaqI and in the presence of M.TaqI (200 ng).
Therefore, the codon for V21 was changed to a codon for glycine by standard PCR mutagenesis (Ho et al., (1989) Gene 77, 51-59) and the correct DNA sequence of the complete gene was verified by DNA sequencing. […] The DNA protection assay with the V21G variant was performed as described for the wild type (Example 3A.1).

[2] = molecular target: T2, M.TaqI (Thermus aquaticus, UniProt P14385); experiment: Modification of adenine-N6 in duplex oligodeoxynucleotide I.II by M.TaqI, nucleoside analysis by HPLC/ESI-MS; type: biochemical; conditions: 37° C. over night, near-stoichiometric enzyme
T2 construct: made in house
Source text: Transfer of the activated ethyl (CH2CH3), propyl (CH2CH2CH3), prop-2-enyl (CH2CHCH2), prop-2-ynyl group (CH2CCH), but-2-ynyl (CH2CCCH3), pent-2-ynyl (CH2CCCH2CH3) or benzyl group (CH2C6H5) from cofactors 3-9 by the DNA adenine-N6 methyltransferase M.TaqI, the DNA cytosine-C5 methyltransferase M.HhaI variant Q82A or the DNA cytosine-N4 methyltransferase M.BcnIB to DNA was first investigated using short duplex oligodeoxynucleotides as substrates. After enzymatic transfer the duplex oligodeoxynucleotides were enzymatically fragmented and the resulting modified nucleosides were analyzed by reversed-phase HPLC coupled with ESI-MS.
M.TaqI was denatured by heating to 95° C. for 10 min and removed by centrifugation ([…], 2 min). The modified duplex oligodeoxynucleotides I^Z—R-II were desalted by gel filtration (NAP-5 column, Amersham Biosciences, Freiburg, Germany), eluted with water (1 mL) and lyophilized.
The modified duplex oligodeoxynucleotides I^Z—R-II were dissolved in buffer (100 μL, 10 mM Tris hydrochloride, 10 mM magnesium chloride, 1 mM zinc acetate, pH 7.5) containing Nuclease PI (1500 u, Sigma, Taufkirchen, Germany) and calf intestine alkaline phosphatase (30 u, MBI Fermentas, St. Leon-Rot, Germany) and incubated at 37° C. for 4 h. Nucleosides were analyzed by reversed-phase HPLC (Symmetry-C18 5 μm, 100 Å, 250×4.6 mm, equipped with a Symmetry-C18 5 μm, 100 Å, 20×4.6 mm pre-column, Waters, Eschborn, Germany). Compounds were eluted with acetonitrile (5% for 7 min, followed by linear gradients to 6% in 15 min, to 35% in 8 min and to 70% in 2 min) in triethylammonium acetate buffer (10 mM, pH 7.0) at a flow of 1 mL/min and detected at 254 nm.
For HPLC-coupled ESI-MS measurements compounds were eluted with methanol (0% for 3 min, followed by a linear gradient to 100% in 22 min) in ammonium formate buffer (20 mM, pH 3.5). A post-column mobile phase modification (equal co-flow of 96% methanol, 4% formic acid) was used to enhance the detection efficiency of 2′-deoxyadenosine and its derivatives. Mass spectra were recorded in 200-370 m/z range.
The hemimethylated duplex oligodeoxynucleotide I.II (compare Scheme 5, Example 2A) was produced by mixing equal molar amounts of complementary single-stranded oligodeoxynucleotide I (5′-GCCGCTCGATGCCG-3′) (SEQ. ID NO. 1) and II (5′-CGGCATCGA^MeGCGGC-3′, A^Me=N6-methyl-2′-deoxyadenosine) (SEQ ID NO. 2) in water, heating at 85° C. for 5 min and slow cooling to room temperature. […] The solution was heated to 95° C. for 10 min, supplemented with Proteinase K and incubated at 55° C. for 2 h. Hydrolysis products were removed by gel filtration (G-25 column, Amersham Biosciences).
The obtained solution was treated with buffer ( 1/10 volume, 100 mM Tris hydrochlorid, 100 mM magnesium chloride, 10 mM zinc acetate, pH 7.5) containing Nuclease P1 (1.14 u, Sigma, Taufkirchen, Germany) and calf intestine alkaline phosphatase (18 u, MBI Fermentas), incubated at 42° C. for 4 h and passed through a Microcon YM-3 spin column (Amicon). Nucleosides were analyzed by reversed-phase HPLC (Discovery HS C18 75×2.1 mm, 3 μm, equipped with a Supelguard Discovery HS C18 20×2.1 mm, 5 μm, pre-column, Supelco, Germany) coupled with a mass spectrometric detector (HP 1100 series ESI-MS equipped with single quadruple). Compounds were eluted with methanol (0% for 3 min, followed by linear gradients to 20% in 15 min and to 80% in 2 min) in ammonium formate buffer (20 mM, pH 3.5) at a flow of 0.3 mL/min. For on-line mass spectrometric detection post-column mobile phase modification (equal co-flow of 96% methanol, 4% formic acid and 1 mM sodium hydroxide) was used to enhance the detection efficiency of 2′-deoxyadenosine, 2′-deoxycytidine and their derivatives. Mass spectra were recorded in 50-600 m/z range.

T2 sequence (P14385 whole entry): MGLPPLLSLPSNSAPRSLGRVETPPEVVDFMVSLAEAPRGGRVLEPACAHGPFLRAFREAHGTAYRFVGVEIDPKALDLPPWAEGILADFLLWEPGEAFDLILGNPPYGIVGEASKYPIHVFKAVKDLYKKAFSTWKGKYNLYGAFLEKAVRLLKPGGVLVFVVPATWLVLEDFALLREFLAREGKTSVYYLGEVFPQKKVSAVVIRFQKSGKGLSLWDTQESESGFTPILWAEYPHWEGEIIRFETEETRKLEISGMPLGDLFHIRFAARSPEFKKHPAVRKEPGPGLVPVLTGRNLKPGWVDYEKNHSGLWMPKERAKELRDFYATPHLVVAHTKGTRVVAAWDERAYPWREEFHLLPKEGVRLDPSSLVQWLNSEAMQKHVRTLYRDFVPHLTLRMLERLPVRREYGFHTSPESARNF
T1 sequence (P14385 whole entry V21G): as the sequence (P14385 whole entry) above, with V21G counted along it

Compound	specific activity of M.TaqI-V21G with the cofactor [1] [u/μg]	cofactor function for M.TaqI (transfer of group Z-R to adenine-N6) [2]
CC#CC[S+](CCC(N)C(=O)O)CC1OC(n2cnc3c(N)ncnc32)C(O)C1O (mixture of isomers) [Cofactor 7]	80	functions as a cofactor
CC[S+](CCC(N)C(=O)O)CC1OC(n2cnc3c(N)ncnc32)C(O)C1O (stereo not shown) [Cofactor 3]	5	functions as a cofactor
CCC[S+](CCC(N)C(=O)O)CC1OC(n2cnc3c(N)ncnc32)C(O)C1O (stereo not shown) [Cofactor 4]	< 5	functions as a cofactor
C=CC[S+](CCC(N)C(=O)O)CC1OC(n2cnc3c(N)ncnc32)C(O)C1O (stereo not shown) [Cofactor 5]	640	functions as a cofactor
C#CC[S+](CCC(N)C(=O)O)CC1OC(n2cnc3c(N)ncnc32)C(O)C1O (stereo not shown) [Cofactor 6]	20	functions as a cofactor
CCC#CC[S+](CCC(N)C(=O)O)CC1OC(n2cnc3c(N)ncnc32)C(O)C1O (stereo not shown) [Cofactor 8]	80	functions as a cofactor
NCCCC(=O)NCC#CC[S+](CCC(N)C(=O)O)CC1OC(n2cnc3c(N)ncnc32)C(O)C1O (stereo not shown) [Cofactor 10]		functions as a cofactor
